From patent EP1801111A1, “Novel polymorph forms of olmesartan medoxomil” (LEK Pharmaceuticals d.d., priority 2005, dated 2007)

Experiments:
[1] = Hygroscopicity: mass change after exposing to air moisture; type: physicochemical; settings: for increase of the mass of the sample: after exposing to air moisture for 6 days
[2] = 1 n hcl

| increase of the mass of the sample ([1]; hemihydrate) | hygroscopicity (in words) ([1]; compared with the prior art substance) | solubility in 1 N HCI [2] | increase of the mass of the sample [1] | Compound |
| --- | --- | --- | --- | --- |
| did not increase | not hydroscopic | around 3 mg/ml | – | CCCc1nc(C(C)(C)O)c(C(=O)OCc2oc(=O)oc2C)n1Cc1ccc(-c2ccccc2-c2nnn[nH]2)cc1 [olmesartan medoxomil hemihydrate] |
| – | – | up to 7 mg/ml | – | CCCc1nc(C(C)(C)O)c(C(=O)OCc2oc(=O)oc2C)n1Cc1ccc(-c2ccccc2-c2nnn[nH]2)cc1 [partially crystalline or amorphous, olmesartan medoxomil] |
| – | – | approximately 2 mg | 0,61% | CCCc1nc(C(C)(C)O)c(C(=O)OCc2oc(=O)oc2C)n1Cc1ccc(-c2ccccc2-c2nnn[nH]2)cc1 [prior art substance, olmesartan medoxomil] |
